US6538037B2, “Methods for preparation and use of 1α,24(S)-dihydroxyvitamin D2” (Bone Care International, Inc., priority 1991, dated 2003)
Entries after “also recorded” stand apart in the source; their conditions may differ.

How the values were obtained:
[1] = Prophylaxis of postmenopausal bone loss; type: in vivo, human; settings: at or above 1.0 μg/day, 24 to 36 months
Method: A clinical study is conducted with healthy postmenopausal women having ages between 55 and 60 years. The study involves up to 80 patients randomly divided into two treatment groups, and continues for 24 to 36 months. One treatment group receives a constant dosage of 1α,24(S)-dihydroxyvitamin D2 (u.i.d.; a dose level at or above 1.0 μg/day) and the other receives a matching placebo. The study is conducted as indicated in Example 2 above.

bovine thymus VDR = molecular target: T1, bovine thymus VDR (Bos taurus, UniProt Q28037); assay: Radioreceptor assay, displacement of 3H-1α,25-(OH)2D3 tracer from bovine thymus VDR; type: binding
T1 construct: commercially available reagents of bovine thymus VDR; purchased Incstar (Stillwater, Minn.); host or cells: bovine thymus
T1 sequence (Q28037 1-426): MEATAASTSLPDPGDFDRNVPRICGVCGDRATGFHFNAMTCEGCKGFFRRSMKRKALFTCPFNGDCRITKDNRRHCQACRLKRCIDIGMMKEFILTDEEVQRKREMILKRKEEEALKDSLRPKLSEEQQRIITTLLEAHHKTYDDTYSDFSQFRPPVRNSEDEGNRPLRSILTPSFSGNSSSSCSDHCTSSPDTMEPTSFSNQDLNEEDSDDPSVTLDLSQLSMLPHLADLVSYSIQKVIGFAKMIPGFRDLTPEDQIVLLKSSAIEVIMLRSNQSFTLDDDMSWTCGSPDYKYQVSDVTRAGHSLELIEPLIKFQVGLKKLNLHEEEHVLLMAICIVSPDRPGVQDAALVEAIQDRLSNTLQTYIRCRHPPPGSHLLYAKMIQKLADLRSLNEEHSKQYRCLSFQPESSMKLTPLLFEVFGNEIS
Method: Purified 1α,24(S)-(OH)2D2 was quantitated by photodiode array spectrophotometry and assayed in the radioreceptor assay.
The purified 1α,24(R)-(OH)2D2 and 1α,24(S)-(OH)2D2 epimers were quantitated by ultraviolet spectroscopy.
The binding affinities of the environmentally exposed compounds, crystalline 1α,24-dihydroxyvitamin D2 and powdered 1α,24-dihydroxyvitamin D2, to the vitamin D receptor (VDR) were assessed using methods known in the art, as described, e.g., in Example 6. […] The percent bound versus amount of compound in pg/tube are graphed in FIG. 5.

In the case of `C=C1/C(=C\C=C2/CCC[C@]3(C)[C@@H]([C@H](C)/C=C/[C@@](C)(O)C(C)C)CC[C@@H]23)C[C@@H](O)C[C@@H]1O` [1α,24(S)-(OH)2D2, 1α,24(S)-dihydroxyvitamin D2], the “losses in total body calcium, radial or spinal bone densities relative to baseline” value [1] is reported as “reduced losses in total body calcium, radial or spinal bone densities”, the monitored safety parameters [1] is reported as “confirm the safety of long-term 1α,24(S)-dihydroxyvitamin D2 administration” and the “affinity for VDR relative to 1α,25-(OH)2D3” value (bovine thymus VDR) is reported as “two-fold lower affinity; also recorded: two-fold less competitive”. It also gave an IC50 (bovine thymus VDR; radioreceptor assay, Incstar kit, read-out: half-maximal binding (converted)) of about 0.35 nM.
